Test results as given in publication PMC7382501 (Nature Communications, 2020).

Columns and labels:
Mtb FasR = settings: ref Mondino et al Mol Microbiol 2013 89:372; cited from earlier work
FasRwt = FasRwt (Mycobacterium tuberculosis, UniProt O05858)
Chain of FasRwt (O05858 whole entry): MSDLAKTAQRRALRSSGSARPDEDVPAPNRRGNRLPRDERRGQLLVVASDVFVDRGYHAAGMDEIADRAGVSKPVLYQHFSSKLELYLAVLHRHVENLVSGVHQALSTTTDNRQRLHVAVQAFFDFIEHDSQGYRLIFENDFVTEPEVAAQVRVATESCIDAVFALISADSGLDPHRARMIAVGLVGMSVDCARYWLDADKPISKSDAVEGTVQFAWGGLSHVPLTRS

| SMILES | triggering of DNA-dissociation (Mtb FasR) | k, exponential decay rate of full-length FasR under trypsin proteolysis (FasRwt) |
| --- | --- | --- |
| CCCCCCCCCCCCCC(=O)O [C14, myristic acid] | ineffective at triggering DNA-dissociation | – |
| CCCCCCCCCCCCCCCCCCCC(=O)SCCNC(=O)CCNC(=O)[C@H](O)C(C)(C)COP(=O)(O)OP(=O)(O)OC[C@H]1O[C@@H](n2cnc3c(N)ncnc32)[C@H](O)[C@@H]1OP(=O)(O)O [C20-CoA, arachidoyl-CoA] | – | 0.11 |
